The record followed here is patent US20240245673A1, “Papain-like protease (PLpro) inhibitors” (Pfizer Inc., priority 2022, published 2024).

Structures are written as SMILES. Some results are limits rather than exact numbers.

For one assay, the target named is SARS-CoV-2 Papain like protease (PLpro) (Severe acute respiratory syndrome coronavirus 2 (2019-nCoV) (SARS-CoV-2), UniProt P0DTD1). Put plainly: Papain Like Protease (PLpro) biochemical assay with profluorogenic substrate Z-RLRGG-AMC. Particulars: IC50 (μM), SARS-CoV-2 PLpro 6.25 nM, 25 μM Z-RLRGG-AMC substrate, 60 minute reaction.
Broadly, the IC50 is the concentration needed to halve the response being measured. `Cc1ccc(N2CC3CC(C2)N3)cc1C(=O)N[C@H](C)c1cc(-c2cnn(C)c2)nc2ccccc12` [Example 251, 5-(3,6-diazabicyclo[3.1.1]heptan-3-yl)-2-methyl-N—((R)-1-(2-(1-methyl-1H-pyrazol-4-yl)quinolin-4-yl)ethyl)benzamide] displayed a half-maximal inhibitory concentration (IC50) of 0.005 µM. The molecule `Cc1ccc(N2CC3CC(C2)N3)cc1C(=O)NC1(c2cc(-c3cnn(C)c3)nc3ccccc23)CC1` [Example 289, 5-(3,6-diazabicyclo[3.1.1]heptan-3-yl)-2-methyl-N-(1-(2-(1-methyl-1H-pyrazol-4-yl)quinolin-4-yl)cyclopropyl)benzamide] showed a concentration for half-maximal inhibition (IC50) of 0.001 µM.

Staying with this assay, now noted: SARS-CoV-2 PLpro 6.25 nM, 25 μM Z-RLRGG-AMC substrate, 60 minute reaction; read-out: IC50.
In the case of `Cc1cc(CC(=O)Nc2cncs2)ccc1C(=O)N[C@H](C)c1cc(-c2cnn(C)c2)nc2ccccc12` [Example 237, (R)-2-methyl-N-(1-(2-(1-methyl-1H-pyrazol-4-yl)quinolin-4-yl)ethyl)-4-(2-oxo-2-(thiazol-5-ylamino)ethyl)benzamide], the IC50 was determined as 0.036 µM. On the same count and under the same terms, to `Cc1ccc(CN)cc1C(=O)NC(C)c1cc(-c2cnn(C)c2)c(O)c2ccccc12` (stereo not shown) [Example 217, 5-(aminomethyl)-N-(1-(4-hydroxy-3-(1-methyl-1H-pyrazol-4-yl)naphthalen-1-yl)ethyl)-2-methylbenzamide] belongs 0.119 µM; to `Cc1cc(C(=O)NCc2nccn2C)ccc1C(=O)N[C@H](C)c1cc(-c2cnn(C)c2)nc2ccccc12` [Example 271], 0.005 µM. For `Cc1cc(C(C)NC(=O)c2cscn2)ccc1C(=O)N[C@H](C)c1cc(-c2cnn(C)c2)nc2ccccc12` (stereo partly drawn) [Example 269, N-(1-(3-methyl-4-(((R)-1-(2-(1-methyl-1H-pyrazol-4-yl)quinolin-4-yl)ethyl)carbamoyl)phenyl)ethyl)thiazole-4-carboxamide], the 50% inhibitory concentration (IC50) was found to be 0.041 µM.

Take `Cc1cc(COCc2cscn2)ccc1C(=O)NC1(c2cc(-c3cc(C(=O)N(C)CC(C)(C)O)n[nH]3)nc3ccccc23)CC1` [Example 357, N-(2-hydroxy-2-methylpropyl)-N-methyl-5-(4-(1-(2-methyl-4-((thiazol-4-ylmethoxy)methyl)benzamido)cyclopropyl)quinolin-2-yl)-1H-pyrazole-3-carboxamide]: the IC50 is below 0.001 µM. On the same count and under the same terms, the value for `Cc1cc(C(=O)NCc2ncc[nH]2)ccc1C(=O)N[C@H](C)c1cc(-c2cnn(C)c2)nc2ccccc12` [Example 245] was 0.005 µM; that for `Cc1ccccc1C(=O)NC(C)c1cc(-c2cnn(CCN3CCOCC3)c2)nc2ccccc12` (stereo not shown) [Example 125, 2-methyl-N-[1-(2-{1-[2-(morpholin-4-yl)ethyl]-1H-pyrazol-4-yl}quinolin-4-yl)ethyl]benzamide] was 0.294 µM. Still for that read-out and setting: the value for `CCN(C)C(=O)Cn1cc(-c2cc(C3(NC(=O)c4ccc(COCc5cscn5)cc4C)CC3)c3ccccc3n2)cn1` [Example 364] was below 0.001 µM; that for `Cc1cc(CN(C)C(=O)c2ncc[nH]2)ccc1C(=O)N[C@H](C)c1cc(-c2cnn(C)c2)nc2ccccc12` [Example 265, (R)-N-methyl-N-(3-methyl-4-((1-(2-(1-methyl-1H-pyrazol-4-yl)quinolin-4-yl)ethyl)carbamoyl)benzyl)-1H-imidazole-2-carboxamide] was 0.14 µM; that for `Cc1ccc(CN)cc1C(=O)NC(C)c1cc(-n2ccc(C#N)n2)nc2ccccc12` (stereo not shown) [Example 35, 5-(aminomethyl)-N-(1-(2-(3-cyano-1H-pyrazol-1-yl)quinolin-4-yl)ethyl)-2-methylbenzamide] was 1.48 µM.

In the case of `COCc1cc(-c2cc(C(C)NC(=O)c3ccccc3C)c3ccccc3n2)cs1` (stereo not shown) [Example 106, N-(1-{2-[5-(methoxymethyl)thiophen-3-yl]quinolin-4-yl}ethyl)-2-methylbenzamide], the IC50 was 0.241 µM. Same read-out and setting: to `Cc1ccc(NC(=O)[C@H]2CCCCN2)cc1C(=O)NC(C)c1cc(-c2cn[nH]c2)cc2ccccc12` (single isomer, unassigned) [Example 52, (R)—N-(3-(((R*)-1-(3-(1H-pyrazol-4-yl)naphthalen-1-yl)ethyl)carbamoyl)-4-methylphenyl)piperidine-2-carboxamide] belongs 0.011 µM; to `Cc1cc(C(C)(C)NCc2cscn2)ccc1C(=O)N[C@H](C)c1cc(-c2cnn(C)c2)nc2ccccc12` [Example 241, (R)-2-methyl-N-(1-(2-(1-methyl-1H-pyrazol-4-yl)quinolin-4-yl)ethyl)-4-(2-((thiazol-4-ylmethyl)amino)propan-2-yl)benzamide], 0.007 µM. The same measure, in the same setting: to `Cc1ccccc1C(=O)NC(C)c1cc(-c2c(C#N)cnn2C)nc2ccccc12` (stereo not shown) [Example 108, N-{1-[2-(4-cyano-1-methyl-1H-pyrazol-5-yl)quinolin-4-yl]ethyl}-2-methylbenzamide] belongs 0.931 µM; to `Cc1ccccc1C(=O)NC(C)c1cc(-c2cncc(F)c2)nc2ccccc12` (stereo not shown) [Example 137, N-{1-[2-(5-fluoropyridin-3-yl)quinolin-4-yl]ethyl}-2-methylbenzamide], 1.13 µM; to `Cc1ccc(CN)cc1C(=O)NC(C)c1cc(-c2cnn(C)c2)cc2ccccc12` (stereo not shown) [Example 3, 5-(aminomethyl)-2-methyl-N-(1-(3-(1-methyl-1H-pyrazol-4-yl)naphthalen-1-yl)ethyl)benzamide], 0.048 µM. On the same count and under the same terms, to `Cc1ccc(NC(=O)[C@H]2CCCCN2)cc1C(=O)N[C@H](C)c1cc(-c2cnn(C)c2)cc2ccccc12` (single isomer, unassigned) [Example 67] belongs 0.272 µM; to `Cc1ccc(N2C[C@H]3C[C@@H]2CN3C)cc1C(=O)N[C@H](C)c1cc(-c2cnn(C)c2)nc2ccccc12` (single isomer, unassigned) [Example 281, 2-methyl-N—((R)-1-(2-(1-methyl-1H-pyrazol-4-yl)quinolin-4-yl)ethyl)-5-((1R*,4R*)-5-methyl-2,5-diazabicyclo[2.2.1]heptan-2-yl)benzamide], 0.003 µM; to `COC[C@H](OCc1cscn1)c1ccc(C(=O)NC2(c3cc(-c4cc(C(=O)N(C)C)n[nH]4)cc4ncccc34)CC2)c(C)c1` (single isomer, unassigned) [Example 361], below 0.001 µM.

Turning to `Cc1ccc(CN)cc1C(=O)NC(C)c1cc(-n2cnnc2C(N)=O)nc2ccccc12` (stereo not shown) [Example 33, 4-(4-(1-(5-(aminomethyl)-2-methylbenzamido)ethyl)quinolin-2-yl)-4H-1,2,4-triazole-3-carboxamide], the IC50 was found to be 1.36 µM. For `Cc1cc(C(C)(C)NC(=O)c2ncc[nH]2)ccc1C(=O)N[C@H](C)c1cc(-c2cnn(C)c2)nc2ccccc12` [Example 215, (R)-N-(2-(3-methyl-4-((1-(2-(1-methyl-1H-pyrazol-4-yl)quinolin-4-yl)ethyl)carbamoyl)phenyl)propan-2-yl)-1H-imidazole-2-carboxamide], the concentration for half-maximal inhibition (IC50) was found to be 0.144 µM.

As to `Cc1cc(COCc2cscn2)ccc1C(=O)NC1(c2cc(-c3cnn(CC(N)=O)c3)nc3ccccc23)CC1` [Example 352, N-(1-(2-(1-(2-amino-2-oxoethyl)-1H-pyrazol-4-yl)quinolin-4-yl)cyclopropyl)-2-methyl-4-((thiazol-4-ylmethoxy)methyl)benzamide], the IC50 is below 0.001 µM. Same read-out and setting: to `CNCc1ccc(C)c(C(=O)N[C@H](C)c2cc(-c3cnn(C)c3)nc3ccccc23)c1` [Example 13, (R)-2-methyl-N-(1-(2-(1-methyl-1H-pyrazol-4-yl)quinolin-4-yl)ethyl)-5-((methylamino)methyl)benzamide] belongs 0.024 µM; to `Cc1cc(COCc2cscn2)ccc1C(=O)NC1(c2cc(-c3cnn(CCS(C)(=O)=O)c3)nc3ccccc23)CC1` [Example 328, 2-methyl-N-(1-(2-(1-(2-(methylsulfonyl)ethyl)-1H-pyrazol-4-yl)quinolin-4-yl)cyclopropyl)-4-((thiazol-4-ylmethoxy)methyl)benzamide], below 0.001 µM.

`Cc1cc(COCc2cscn2)ccc1C(=O)NC1(c2cc(-c3cnn(CS(C)(=O)=O)c3)nc3ccccc23)CC1` [Example 341, 2-methyl-N-(1-(2-(1-((methylsulfonyl)methyl)-1H-pyrazol-4-yl)quinolin-4-yl)cyclopropyl)-4-((thiazol-4-ylmethoxy)methyl)benzamide]: the IC50 was below 0.001 µM. Still for that read-out and setting: the value for `CC(=O)N(Cc1ccc(C(=O)N[C@H](C)c2cc(-c3cnn(C)c3)nc3ccccc23)c(C)c1)Cc1cscn1` [Example 267, (R)-2-methyl-N-(1-(2-(1-methyl-1H-pyrazol-4-yl)quinolin-4-yl)ethyl)-4-((N-(thiazol-4-ylmethyl)acetamido)methyl)benzamide] was 0.21 µM; that for `Cc1cc(COCc2cscn2)ccc1C(=O)NC1(c2cc(-c3cc(C(N)=O)n[nH]3)nc3ccccc23)CC1` [Example 349, 5-(4-(1-(2-methyl-4-((thiazol-4-ylmethoxy)methyl)benzamido)cyclopropyl)quinolin-2-yl)-1H-pyrazole-3-carboxamide] was below 0.001 µM; that for `Cc1ccccc1C(=O)NC(C)c1cc(-c2ccc3ncnn3c2)nc2ccccc12` (stereo not shown) [Example 118, 2-methyl-N-{1-[2-([1,2,4]triazolo[1,5-a]pyridin-6-yl)quinolin-4-yl]ethyl}benzamide] was 1.32 µM.

As to `COC[C@@H](OCc1cscn1)c1ccc(C(=O)NC2(c3cc(-c4cnn(C)c4)cc4ncccc34)CC2)c(C)c1` (single isomer, unassigned) [Example 334], the IC50 is below 0.001 µM. With `Cc1ccc(N2CCN(C)CC2)cc1C(=O)NC(C)c1cc(-c2cnn(C)c2)cc2ccccc12` (stereo not shown) [Example 73, 2-methyl-N-(1-(3-(1-methyl-1H-pyrazol-4-yl)naphthalen-1-yl)ethyl)-5-(4-methylpiperazin-1-yl)benzamide], the IC50 came out at 0.022 µM. As to `Cc1ccc(CNS(C)(=O)=O)cc1C(=O)N[C@H](C)c1cc(-c2cnn(C)c2)nc2ccccc12` [Example 61], the IC50 turned out to be 0.046 µM. Consider `Cc1cc(C(=O)N(C)Cc2cscn2)ccc1C(=O)N[C@H](C)c1cc(-c2cnn(C)c2)nc2ccccc12` [Example 243], for which the IC50 stood at 0.077 µM.
